According to publication PMC8494816 (Scientific Reports, 2021):
One block for each molecule: values may come before it.

Key:
patients with RUCC = conditions: cited from earlier work; for efficacy in treating RUCC patients: phase IIa setting
[1] = target: P2X3 homotrimeric receptors; set-up: method as in PMID 30902655; conditions: cited from earlier work
[2] = target: P2X2/3 heterotrimeric receptors; set-up: method as in PMID 30902655; conditions: cited from earlier work
animal models = test system: animal models; set-up: method as in PMID 30902655; conditions: cited from earlier work
rP2X3 receptors = target: T1, rP2X3 receptors (Rattus norvegicus, UniProt P49654); assay: cell-based
T1 sequence (P49654 1-397): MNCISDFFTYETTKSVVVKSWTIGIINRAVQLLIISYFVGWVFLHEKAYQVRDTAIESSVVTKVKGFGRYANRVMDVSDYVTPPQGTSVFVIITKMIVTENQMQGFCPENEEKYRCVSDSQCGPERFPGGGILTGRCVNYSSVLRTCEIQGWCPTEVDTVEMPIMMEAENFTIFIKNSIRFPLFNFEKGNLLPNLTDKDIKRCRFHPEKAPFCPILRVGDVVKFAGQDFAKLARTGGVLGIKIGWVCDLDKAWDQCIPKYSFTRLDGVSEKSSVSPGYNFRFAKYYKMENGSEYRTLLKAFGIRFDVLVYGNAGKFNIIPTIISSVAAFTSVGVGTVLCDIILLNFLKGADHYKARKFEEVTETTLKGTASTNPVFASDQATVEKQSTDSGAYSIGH
Experimental: (§1) Cells were maintained in Dulbecco’s Modified Eagle Medium (DMEM) media (Sigma) supplemented with 10% fetal bovine serum (FBS) (Sigma) in a humidified incubator with 5% CO2 at 37 °C.
(§2) P2X receptor-induced changes in intracellular calcium levels were monitored using the calcium-chelating dye, Fluo-4AM (Molecular Probes), quantitated with a fluorescence imaging plate reader (FLEX/FLIPR station; Molecular Devices, Sunnyvale, CA, USA). Cells expressing P2X3 or P2X2/3 receptors were plated at a density of 15,000 cells/well in collagen-coated 384-well plates approximately 20 h before assay.

rP2X2/3 receptors = target: T2, rP2X2/3 receptors (Rattus norvegicus, UniProt P49653+P49654); assay: FLIPR calcium flux assay, recombinant cells; format: cell-based
T2 sequence (P49654 1-397): T1 sequence (P49654 1-397)
T2 sequence (P49653 1-472): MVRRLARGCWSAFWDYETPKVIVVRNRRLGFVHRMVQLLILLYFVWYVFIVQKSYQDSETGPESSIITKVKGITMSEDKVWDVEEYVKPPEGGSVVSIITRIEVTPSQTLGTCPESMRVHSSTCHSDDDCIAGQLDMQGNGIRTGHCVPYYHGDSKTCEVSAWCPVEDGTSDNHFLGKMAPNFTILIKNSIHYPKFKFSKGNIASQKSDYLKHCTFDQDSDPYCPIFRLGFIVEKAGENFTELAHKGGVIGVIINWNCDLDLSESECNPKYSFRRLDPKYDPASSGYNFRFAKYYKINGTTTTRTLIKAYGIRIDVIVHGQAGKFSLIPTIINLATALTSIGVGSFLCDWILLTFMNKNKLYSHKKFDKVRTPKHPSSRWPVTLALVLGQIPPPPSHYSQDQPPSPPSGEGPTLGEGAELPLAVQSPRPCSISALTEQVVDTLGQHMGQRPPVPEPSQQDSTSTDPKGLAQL
Experimental: as §1, §2

[3] = target: T3, native channels from DRG (predominately P2X3 receptors) (Rattus norvegicus, UniProt P49654); assay: Whole-cell patch-clamp assay in rat neurons (DRG); format: cell-based; conditions: female Sprague Dawley rat neurons, α,β-meATP 10 µM
T3 construct: native channels from both DRG (predominately P2X3 receptors) and nodose ganglia (NDG, predominately P2X2/3 receptors) rat tissues; from tissue; host or cells: primary neurons from dorsal root ganglia (L6–L4) of female Sprague Dawley rats
T3 sequence (P49654 1-397): T1 sequence (P49654 1-397)
Experimental: Experiments were performed under the whole-cell patch-clamp configuration at a holding potential of – 80 mV at room temperature. […] The cells were dissociated with Accumax, centrifuged at 1000 rpm for 3 min, re-suspended in manual patch-clamp buffer, and then plated in dishes at a density of ~ 50,000 cells/dish. The currents were recorded using HEKA amplifiers and Patchmaster software (HEKA Electronics). The bath solution contained 140 mM NaCl, 5 mM KCl, 1 mM CaCl2, 2 mM MgCl2, 25 mM HEPES, and 10 mM glucose, at pH 7.4. The intracellular solution contained 140 mM CsCl, 10 mM HEPES, and 10 mM BAPTA, at pH 7.0. […] The recordings were performed in a cumulative manner with 4- or 8-min incubation times per compound concentration. Hexokinase (50 U/mL) was added to reduce channel desensitization when recording human and rat P2X3 receptor neurons. A seal resistance of minimum 250 MΩ and a series resistance of less than 20 MΩ were applied as quality control parameters. The effect at each concentration of antagonist was determined according to the following equation: % response = (100 * Idrug)/Icontrol), where Icontrol was the peak current amplitude of the last agonist addition prior to incubation with the antagonist, and Idrug was the peak current amplitude in the presence of an antagonist. Each concentration of antagonist was tested on a minimum of three independent cells. […]

[4] = test system: neurogenic plasma extravasation in female Sprague Dawley rats; assay: Rat model of uterine neurogenic inflammation (mustard oil, Evans blue); format: in vivo; conditions: i.v. bolus 0.7 mg/kg then infusion 0.2 mg/kg/h, vs vehicle, P < 0.01
Half-life in humans = conditions: human, in vivo; data not shown
Half-life in rats = conditions: rat, in vivo; data not shown
hP2X1 receptors = target: T4, hP2X1 receptors (Homo sapiens, UniProt P51575); assay: Recombinant cell line selectivity assay
T4 sequence (P51575 1-399): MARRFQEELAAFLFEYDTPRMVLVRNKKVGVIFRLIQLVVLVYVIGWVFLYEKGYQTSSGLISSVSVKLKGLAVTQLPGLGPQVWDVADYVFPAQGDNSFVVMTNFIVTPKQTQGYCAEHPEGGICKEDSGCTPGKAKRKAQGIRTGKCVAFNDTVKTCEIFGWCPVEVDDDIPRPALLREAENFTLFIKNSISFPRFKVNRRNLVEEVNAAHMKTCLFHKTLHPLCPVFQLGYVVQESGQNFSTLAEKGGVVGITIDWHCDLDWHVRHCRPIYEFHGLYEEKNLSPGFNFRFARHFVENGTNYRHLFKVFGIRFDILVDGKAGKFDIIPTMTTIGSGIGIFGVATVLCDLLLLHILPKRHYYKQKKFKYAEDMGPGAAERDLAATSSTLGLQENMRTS

[5] = target: T5, homotrimeric hP2X4 receptor (Homo sapiens, UniProt Q99571); assay: Recombinant cell line selectivity assay
T5 sequence (Q99571 1-388): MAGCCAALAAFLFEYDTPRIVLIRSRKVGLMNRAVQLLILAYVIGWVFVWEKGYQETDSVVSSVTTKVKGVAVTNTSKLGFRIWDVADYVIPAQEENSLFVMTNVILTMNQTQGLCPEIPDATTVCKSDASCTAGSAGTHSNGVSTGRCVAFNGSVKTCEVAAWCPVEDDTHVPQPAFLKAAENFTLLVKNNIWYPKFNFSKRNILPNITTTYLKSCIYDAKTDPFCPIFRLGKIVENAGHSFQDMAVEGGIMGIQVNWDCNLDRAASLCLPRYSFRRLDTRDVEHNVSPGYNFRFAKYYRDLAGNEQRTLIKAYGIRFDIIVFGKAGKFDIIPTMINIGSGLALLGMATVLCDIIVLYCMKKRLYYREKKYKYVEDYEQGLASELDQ

[6] = target: T6, homotrimeric hP2X7 receptor (Homo sapiens, UniProt Q99572); assay: Recombinant cell line selectivity assay
T6 sequence (Q99572 1-595): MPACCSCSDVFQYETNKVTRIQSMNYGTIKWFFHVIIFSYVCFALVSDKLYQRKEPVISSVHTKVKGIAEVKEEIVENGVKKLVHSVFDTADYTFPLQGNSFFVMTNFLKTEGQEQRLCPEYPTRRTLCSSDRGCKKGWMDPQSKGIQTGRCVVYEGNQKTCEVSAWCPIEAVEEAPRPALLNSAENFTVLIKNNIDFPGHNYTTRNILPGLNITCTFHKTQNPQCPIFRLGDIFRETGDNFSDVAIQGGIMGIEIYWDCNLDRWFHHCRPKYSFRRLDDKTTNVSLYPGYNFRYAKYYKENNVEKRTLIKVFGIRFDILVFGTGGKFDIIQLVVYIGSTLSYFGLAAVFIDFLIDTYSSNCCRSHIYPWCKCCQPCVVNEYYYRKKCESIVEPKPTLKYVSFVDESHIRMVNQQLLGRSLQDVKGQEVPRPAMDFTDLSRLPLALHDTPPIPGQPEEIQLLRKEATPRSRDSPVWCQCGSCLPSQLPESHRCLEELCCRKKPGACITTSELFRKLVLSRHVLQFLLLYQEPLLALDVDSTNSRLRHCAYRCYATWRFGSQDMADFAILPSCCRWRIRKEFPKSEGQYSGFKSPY

[7] = test system: vaginal hyperalgesia in female Sprague Dawley rats; assay: Rat dyspareunia model (VMR to vaginal distension); conditions: vs vehicle
Experimental: The visceromotor response (VMR) to vaginal distension using an inflated vaginal balloon was determined by counting the number of abdominal muscle contractions via electromyography (EMG) in conscious animals as an objective measure of vaginal sensitivity. […] The VMR response to vaginal distension was measured at week five (on-drug) and week six (one week off-drug) post-implantation of uterine horn pieces.
The VMR to vaginal distension was used in conscious animals as an objective measure of vaginal sensitivity. […] In addition, to measure the VMR response, two Teflon-coated wire electrodes (AS632; Cooner Wire, USA) were sutured in the external oblique abdominal muscle, and then tunneled subcutaneously to be exteriorized at the base of the neck for future access. […] On the day of VMR assessment, a lubricated small balloon (embolectomy catheter 5F, 1 cm in length; IsoMed, France) was inserted into the mid-vaginal canal. […] The magnitude of the VMR at each vaginal distension test was quantified by counting manually the number of EMG spike bursts (or abdominal muscle contractions) per period of 40 s (= 0.1 mL distension volume). […] For each animal, the cumulative number of abdominal contractions was calculated and plotted against vaginal distension volume, and the corresponding AUC was calculated. […]
All data are expressed as mean (or mean ± SD), unless otherwise indicated.

[8] = test system: CFA-induced hyperalgesia in female C57BL/6 mice; assay: Mouse CFA-induced mechanical hyperalgesia model (von Frey); conditions: oral twice daily, 48 h after CFA
Experimental: In this model, mechanical hyperalgesia was induced in female C57BL/6 mice (n = 9) by injecting CFA into the plantar surface of one hind paw and assessed using von Frey filaments. The filaments were used to stimulate the hind paw, and a behavioral response was measured depending on the strength of the von Frey filament used (expressed in [g]). […] Compounds were administered orally, twice daily, starting one hour before CFA injection. […] Mechanical hyperalgesia was induced in female C57BL/6 mice by injecting 30 µL of undiluted CFA into the medial left plantar hind paw. […] Mice were placed individually in transparent Plexiglas enclosures set on a wire mesh floor for at least 60 min prior to testing. Mechanical response thresholds were determined using calibrated von Frey monofilaments applied to the plantar surface of hind paws. The simplified up-down method[69] was used to estimate the 50% withdrawal threshold of contralateral and ipsilateral paws. […] All dose formulations were letter coded and administered to the animals by a technician not involved in conducting the behavioral von Frey testing. All von Frey measurements were performed by a second experimenter who was blinded to the treatments received by the animals. Upon completion of the experiments, mice were euthanized by exposure to carbon dioxide.

[9] = test system: CFA-induced mechanical hyperalgesia in male Sprague Dawley rats; assay: Rat CFA-induced mechanical hyperalgesia model (PAM, paw withdrawal threshold)
Experimental: Mechanical hyperalgesia was induced in 32 healthy male Sprague Dawley rats by injecting 25 µL of CFA (1 mg/mL) unilateral into the plantar surface of one hind paw. Mechanical hyperalgesia was measured using the Pressure Application Measurement apparatus (Ugo Basile, Comerio, Italy). Briefly, a linearly increasing pressure was applied to an area of ~ 50 mm^2 of the plantar side of the hind paw until a behavioral response (paw withdrawal) was observed, or until the pressure reached 1000-g force. The pressure at which the behavioral response occurred was recorded as the PWT. Both CFA-injected and contralateral PWTs were determined for each rat, in each treatment group, and at each time point of the study. […] All dose formulations were letter coded and administered to the animals by one technician not involved in conducting the behavioral PAM testing. All PAM measurements were performed by a second technician who was blinded to the treatments received by the animals.
All data are expressed as mean (or mean ± SD), unless otherwise indicated. Data were analyzed with either GraphPad Prism (v6.03, https://www.graphpad.com/scientific-software/prism/) or the Excel Fit software. For the rat hyperalgesia model, data were analyzed by computing the mean PWT for each treatment group, for CFA-injected and non-injected hind paws, and at each time point of the study. Mechanical hyperalgesia in vehicle control group was evaluated by carrying out an unpaired t-test between ipsilateral and contralateral paw values at each time point. The effect of the test compound on hyperalgesia was evaluated by performing a two-way repeated measures-ANOVA on ipsilateral paw values, followed by a Dunnett’s post-hoc test, provided that a main effect for treatment was detected. The effect of the test compound on contralateral response was evaluated following the same statistical procedure. […] A Grubbs’ test was also performed on individual values to reveal potential outliers. A p-value of < 0.05 was considered statistically significant.

Structure (SMILES): CNC(=O)c1cc(F)c(-c2nc3cc(C)ccn3c2C[C@H]2CN(C(=O)OC)CCO2)c(F)c1 [BLU-5937]
primary endpoint in phase IIa study (patients with RUCC; subjects with RUCC): did not reach its desired primary endpoint
IC50 [1]: 0.025 µM
IC50 [2]: > 24 µM
antitussive efficacy and taste disturbances in animal models (animal models): antitussive efficacy with a lack of taste disturbances

Structure (SMILES): COc1cc(C(C)C)c(Oc2cnc(N)nc2N)cc1S(N)(=O)=O [gefapixant]
taste-related AEs, participants (patients with RUCC; latest phase III data, RUCC): 58–69%

IC50 (rP2X3 receptors): 0.004 µM
IC50 (rP2X2/3 receptors): 0.023 µM
IC50 [3]: ~0.019 µM
half-life (Half-life in humans): > 24 h
half-life (Half-life in rats): ~2.8 h
IC50 (hP2X1 receptors): 50 µM
IC50 [5]: 50 µM
IC50 [6]: 50 µM
Structure (SMILES): Cc1cnc(-c2cc(O[C@@H]3CCOC3)cc(C(=O)N[C@H](C)c3cnc(C(F)(F)F)nc3)c2)s1 [eliapixant]
number of blue dots on the skin (neurogenic plasma extravasation) [4]: significantly reduced number of blue dots on the skin
tolerability and taste-related adverse events (patients with RUCC; phase IIa and Ph IIb study in patients with RUCC): well tolerated with a low rate of mild taste-related adverse events
efficacy in treating RUCC patients (patients with RUCC): shown efficacy
vaginal hyperalgesia (AUC of cumulative abdominal contractions), 1 week off drug ([7]; 15 mg/kg oral twice daily weeks 4-5, 6 weeks post-implantation, P < 0.01): significantly decreased vaginal hyperalgesia
vaginal hyperalgesia (AUC of cumulative abdominal contractions), on drug ([7]; 15 mg/kg oral twice daily, 5 weeks post-implantation, P < 0.05): significantly decreased vaginal hyperalgesia
minimal effective oral dose, reversal of hyperalgesia in CFA-injected paw [8]: 5 mg/kg
receptor occupancy corresponding to plasma exposures at which efficacy (reversal of hyperalgesia > 50%) was observed ([9]; rat CFA model, data not shown): 80%
effect on mechanical hyperalgesia (PWT), low dose ([9]; rat, oral 1 mg/kg, n = 8, P < 0.05): moderate and statistically significant at 2 h post-treatment
effect on mechanical hyperalgesia (PWT), medium dose ([9]; rat, oral 3 mg/kg, n = 8, 2, 4, 6 h, P < 0.05 to 0.0001): robust and significant at each time point of the study
effect on mechanical hyperalgesia (PWT), high dose ([9]; rat, oral 10 mg/kg, n = 8, 2, 4, 6 h, P < 0.05 to 0.0001): robust and significant at each time point of the study
effect on mechanical hyperalgesia (Paw Withdrawal Threshold) ([9]; rat, oral, 1, 3, 10 mg/kg, 24 h after CFA, 2, 4, 6 h post-dose): significantly reduced mechanical hyperalgesia in a dose-dependent manner

Structure (SMILES): C[C@@H](Cn1c(=O)[nH]/c(=N\c2ccc(Oc3ccccn3)cc2)n(Cc2ccc(Cl)cc2)c1=O)C(=O)O [S-600918]
cough reduction and taste disturbance (patients with RUCC; patients with RUCC (n = 31)): reduce cough with a low incidence of taste disturbance
efficacy in treating RUCC patients (patients with RUCC): shown efficacy
